From patent US9227852B2, “Apparatus, systems, and methods for water treatment” (McWong Environmental Technology, priority 2008, dated 2016) come the findings set out here.

Read-outs that look alike come from different tables or passages of the source.

A short description of experiment [1]: Bench-scale ozone / AOP treatment of tertiary filtered effluent: Estradiol Equivalents (B-screen bioassay). Conditions: Ozone Only Mode, ozone dose of less than or equal to 5 mg/l, FIG. 27.
Experiment [2] can be described thus: Comparison of treatment methods for removing MIB from water (Table 4, FIG. 6).
Experiment [3] is described as follows: Destruction of trace organic compounds in waste water: nonylphenol. More on the design: dose or concentration left out as unconfirmed. Particulars: ozone dose of about, FIG. 20. The procedure:
(§1) While ozone and ozone/peroxide methods are know to reduce the levels of various organic compounds commonly found in waste water, the efficacy of the present apparatus, systems, and methods for removing nonylphenol (NP), bisphenol-A (BPA), and triclosan (TCS) from waste water was also tested.

Experiment [4] is described as follows: Bench-scale ozone / AOP treatment of tertiary filtered effluent: Sulfamethoxazole. Particulars: Ozone Only Mode, ozone dose of 5 mg/l, FIG. 33.
For a further experiment, the system named is poliovirus. Type of experiment: cell-based.
The subject of the next experiment is total coliform. Type of experiment: cell-based, coliforms.
A short description of experiment [5]: Destruction of trace organic compounds in waste water: triclosan. More on the design: dose or concentration left out as unconfirmed. Conditions: FIG. 20. The procedure:
as §1

A short description of experiment [6]: Bench-scale ozone / AOP treatment of tertiary filtered effluent: Caffeine. Particulars: Ozone Only Mode, ozone dose of 5 mg/l, FIG. 31.
A short description of experiment [7]: Bench-scale ozone / AOP treatment of tertiary filtered effluent: Trimethoprim. Particulars: Ozone Only Mode, ozone dose of 5 mg/l, FIG. 34.
Experiment [8] in a line: Bench-scale ozone / AOP treatment of tertiary filtered effluent: Fluoxetine. Conditions: Ozone Only Mode, ozone dose of 5 mg/l, FIG. 32.
Experiment [9] in a line: Bench-scale ozone / AOP treatment of tertiary filtered effluent: Triclosan. Conditions: Ozone Only Mode, ozone dose of 5 mg/l, FIG. 30.
A short description of experiment [10]: Bench-scale ozone / AOP treatment of tertiary filtered effluent: Gemifibrozil. Conditions: Ozone Only Mode, ozone dose of less than or equal to 5 mg/l, FIG. 28.
The nature of experiment [11]: Bench-scale ozone / AOP treatment of tertiary filtered effluent: Ibuprofen. Conditions: Ozone Only Mode.
A short description of experiment [12]: Destruction of trace organic compounds in waste water: bisphenol-A. The arrangement: dose or concentration left out as unconfirmed. Conditions: FIG. 20. The procedure: as §1
The test system of another experiment is E. Coli. Nature of the experiment: Bench-scale ozone / AOP disinfection of tertiary filtered effluent: E. Coli. Type of experiment: cell-based. Conditions: Ozone Only Mode, ozone dose of less than or equal to 5 mg/l.
The next experiment has as its system MS2 coliphage. Type of experiment: cell-based. Conditions: for effect of peroxide addition on virus / MS2 coliphage disinfection: at the ozone and peroxide doses tested, media filtered or microfiltered water.
The nature of experiment [13]: Comparison of treatment methods for removing geosmin from water (Table 4, FIG. 6).

As to `O=[O+][O-]` [Ozone], the “maximum removal of Estradiol Equivalents” value in [1] is listed as more than 97%. Besides, the “Removal (%) MIB” value in experiment [2] (feed rate 2.5 mg/L) was 77%. Further, the “reduction in MIB” value in experiment [2] (ozone 3 mg/L, FIG. 6) is approximately 40%. Also, the “reduction of the levels of NP” value in [3] was “substantially reduce”. Also, the “maximum removal of Sulfamethoxazole” value in [4] is on record as more than 99.9%. In the experiment on poliovirus, the “Log Reduction of Poliovirus as a function of ozone dose (equation 1)” value was found to be 0.3427×Ozone Dose−0.3621 and the “disinfection of poliovirus corresponding to the 6.5-log disinfection of MS2 coliphage” value worked out at 5 log. Also, in the experiment with total coliform, the “levels of coliforms after treatment” value is “non-detectable”, the “ozone dose at which non-detectable levels of total coliform were achieved” value came out at 4.5 mg/L and the “total coliform after treatment” value was “less than 2.2 MPN/100 mL”. Besides, the “reduction of the levels of TCS” value in experiment [5] is listed as “substantially reduce”. Besides, the “maximum removal of Caffeine” value in experiment [6] was more than 96%. The “maximum removal of Trimethoprim” value in experiment [7] is given as more than 99%. For the same compound, the “maximum removal of Fluoxetine” value in experiment [8] was more than 97%. In addition, the “maximum removal of Triclosan” value in [9] was more than 76%. Besides, in experiment [10], the “maximum removal of Gemifibrozil” value is given as more than 99%. Further, the “removal of Ibuprofen” value in experiment [11] (ozone dose of 5 mg/l, FIG. 29) is reported as approximately 77%. Moreover, in [11] (ozone dose of less than or equal to 10 mg/l), the “maximum removal of Ibuprofen” value is more than 98%. In addition, the “reduction of the levels of BPA” value in experiment [12] was “substantially reduce”. In the experiment with E. Coli, the “log reduction of E. Coli” value is recorded as “greater than 4 log”. Besides, the “E. Coli after disinfection (below the detection limit)” value in the experiment on E. Coli (untreated 12,000 organism/100 ml, FIG. 37) is listed as less than 1 organism/100 ml. Also, in the experiment on MS2 coliphage, the “Log Reduction of MS2 as a function of ozone dose (equation 2)” value was found to be 0.4045×Ozone Dose+0.1823, the “contact time sufficient to achieve a 6.5-log disinfection of MS2 coliphage” value is reported as “about 10 seconds”, the “disinfection of MS2 coliphage achieved” value is reported as 6.5 log and the “ozone dose required to achieve a 6.5-log disinfection of MS2 coliphage” value is listed as “greater than 5 ppm”. Moreover, in the experiment with MS2 coliphage, the “ozone required to achieve a 6.5-log disinfection of MS2 coliphage, relative to media-filtered water” value was “slightly lower”. This compound registered a reduction in geosmin in [13] of approximately 40%. In addition, in experiment [13] (feed rate 2.5 mg/L), the “Removal (%) Geosmin” value turned out to be 94%.
Take `OO` [Hydrogen peroxide]: the “Removal (%) MIB” value in experiment [2] (feed rate 1 mg/L) amounted to 72%. In addition, the “effect of peroxide addition on virus / MS2 coliphage disinfection” value in the experiment on MS2 coliphage (listed as Peroxide) is given as “did not impact disinfection efficacy”; in the experiment with MS2 coliphage (listed as hydrogen peroxide) it was “did not interfere”; with MS2 coliphage (listed as peroxide), “did not significantly affect disinfection”. Further, the “Removal (%) Geosmin” value in experiment [13] (feed rate 1 mg/L) was 50%.
